In US4175125A, “Method for treating methicillin resistant staphylococcus aureus” (Eli Lilly and Company, priority 1978, dated 1979):
Converted amounts (≈) assume the structure as drawn. Counter-ions that a name gives are not always drawn. Like-named read-outs stand apart in the source and are kept apart here.

Tested on: methicillin-resistant Staphylococcus aureus
Assay: Gradient plate test (MIC) against methicillin-resistant Staphylococcus aureus
Format: cell-based
Conditions: for MIC: Staphylococcus aureus
Experimental: The method used is essentially that described by Bryson and Szybalski in 1952 (Science 116:45-46). The inoculum treatment method used for penicillin resistant Staphylococci was reported by Godzeski et al in Antimicrobial Agents and Chemotherapy, May, 1969, pp. 547-554.
A standard Falcon square plastic petri dish is used. A layer of agar (10 ml.) is poured into one of the square dishes, the dish tipped 5 mm. off the horizontal, and the agar layer allowed to harden in this position. This bottom layer of agar contains the antibiotic, the serum, and/or other material to be tested. The medium is Difco Penassay Agar containing 2 percent agar. We routinely used 4 ml. of human or horse serum for "serum-inactivation" testing. […] Therefore, serum is routinely added only to the bottom layer.
After the bottom, slanted layer of agar medium has hardened, the plate is placed flat and another 10 ml. of medium added and allowed to harden.
The inoculum of resistant Staphylococci, as described, is prepared by diluting the water suspension 1/50 in 0.25 percent agar in sterile water or saline. For Gram negative organisms, an overnight broth culture is diluted 1/50 in the 0.25 percent agar-water. This dilution is thoroughly shaken to evenly suspend the bacteria. To streak the plate, we use a 1 ml. pipet containing an aliquot of the final […] agar dilution. After a little practice, a smooth even stroke of inoculum can be laid down very rapidly. The trick is in the smoothness of the streak--it must be accomplished uniformly and quickly.
After 24 hours incubation at 35°-37° C. the plates are read by simply measuring the length of bacterial growth as a percentage of the entire streak distance which is then converted to the percent of antibiotic concentration in the plate.
Average values of duplicate measurements are calculated and the M.I.C.'s reported are average of 2 streaks on the plate and from 2 to 3 duplicate plates. Eight streaks can be easily placed on each plate. If sharp end points are not obtained, the middle concentration between the beginning of inhibition of the streak to the end of growth is measured. The concentration of the antibiotic under examination is varied from plate to plate in a series as follows: […]
This method of screening penicillins and cephalosporins is quite satisfactory. Control plates containing penicillin and staphcillin or prostaphlin, or other control antibiotic, are used daily for the resistant staphylococcal activity screen. The gradient plate method has shown differences between antibiotics that were not apparent by any other methods of screening. […] We believe that the gradient plate screen is more sensitive to small differences between related antibiotics than other methods and pictures of the plates can provide a permanent record. The method also lends itself readily to modification of specific purposes--e.g., cross gradients.
The compounds listed below are examples of compounds useful in the method of this invention. After the compound name there is given in parentheses, where tested, the minimum inhibitory concentrations (MIC) in micrograms per milliliter (μg/ml) for the compound in the above described gradient plate procedure test against methicillin-resistant Staphylococcus aureus, (in the absence of blood serum/in the presence of 20 percent blood serum).
and pharmaceutically acceptable salts thereof. The abbreviation "s.z." means skip zones.

[1] = in the absence of blood serum, read-out: minimum inhibitory concentration (MIC)
[2] = in the presence of 20 percent blood serum, read-out: minimum inhibitory concentration (MIC)
[3] = in the presence of 20 percent blood serum

SMILES | MIC [1] [µg/mL] | MIC [2] [µg/mL] | minimum inhibitory concentration (MIC) [3] | MIC (read-out: minimum inhibitory concentration (MIC), in the absence of blood serum) [µg/mL] | MIC (read-out: minimum inhibitory concentration (MIC), in the presence of 20 percent blood serum) [µg/mL]
CSCC1=C(C(=O)[O-])N2C(=O)C(NC(=O)CSc3cc(Cl)ccc3Cl)[C@H]2SC1.[Na+] (some centres unmarked) [3-methylthiomethyl-7-[2'-(2",5"-dichlorophenylthio)acetamido]-3-cephem-4-carboxylic acid, sodium salt] |  |  |  | 12 | 14.4
Cc1nnc(SCC2=C(C(=O)O)N3C(=O)C(NC(=O)CSc4cc(Cl)cc(Cl)c4)C3SC2)s1 (centres unmarked) [3-(5'-methyl-1',3',4'-thiadiazol-2'-ylthiomethyl)-7-[2'-(3",5"-dichlorophenylthio)acetamido]-3-cephem-4-carboxylic acid, sodium salt] | 4.5 | > 20 |  |  | 
COc1ccc(-c2nnc(SCC3=C(C(=O)O)N4C(=O)C(NC(=O)CSc5cc(Cl)ccc5Cl)C4SC3)o2)cc1 (centres unmarked) [3-[5'-(p-methoxyphenyl)-1',3',4'-oxadiazol-5'-ylthiomethyl]-7-[2'-(2",5"-dichlorophenylthio)acetamido]-3-cephem-4-carboxylic acid, sodium salt] | 4.4 |  |  |  | 
NC(=O)OCC1=C(C(=O)O)N2C(=O)C(NC(=O)CSc3cc(Cl)ccc3Cl)[C@H]2SC1 (some centres unmarked) [3-carbamyloxymethyl-7-[2'-(2",5"-dichlorophenylthio)acetamido]-3-cephem-4-carboxylic acid] | 4.1 (≈ 8.33 µM) | 1.7 |  |  | 
O=C(CSc1cc(Cl)ccc1Cl)NC1C(=O)N2C(C(=O)O)=C(CSc3nnc(-c4ccc([N+](=O)[O-])cc4)o3)CSC12 (centres unmarked) [3-[5'-(p-nitrophenyl)-1',3',4'-oxadiazol-2'-ylthiomethyl]-7-[2'-(2",5"-dichlorophenylthio)actamido]-3-cephem-4-carboxylic acid, sodium salt] | 3.9 | > 20 |  |  | 
O=C(CSc1cc(Cl)ccc1Cl)NC1C(=O)N2C(C(=O)O)=C(CSc3nn[nH]n3)CSC12 (centres unmarked) [3-(1'H-tetrazol-5'-ylthiomethyl)-7-[2'-(2",5"-dichlorophenylthio)acetamido]-3-cephem-4-carboxylic acid] | 6.8 (≈ 12.7 µM) | > 1 |  |  | 
CNC(=O)OCC1=C(C(=O)O)N2C(=O)C(NC(=O)CSc3cc(Cl)ccc3Cl)C2SC1 (centres unmarked) [Example 7, 7(2,5-dichlorophenylmercaptoacetamido)-3-(N-methylcarbamoyloxymethyl)-Δ^3-cephalosphoranic acid] | 5.5 (≈ 10.9 µM) | 18.2 |  |  | 
CC(=O)OCC1=C(C(=O)O)N2C(=O)C(NC(=O)CSc3cccc(F)c3)C2SC1 (centres unmarked) [7-[2'-(3"-fluorophenylthio)acetamido]cephalosporanic acid] | 10.6 (≈ 24.1 µM) | 9.3 |  |  | 

Second part, led by results:

MIC [1] [µg/mL] | MIC [2] [µg/mL] | minimum inhibitory concentration (MIC) [3] | SMILES | MIC (read-out: minimum inhibitory concentration (MIC), in the absence of blood serum) [µg/mL] | MIC (read-out: minimum inhibitory concentration (MIC), in the presence of 20 percent blood serum) [µg/mL]
1.8 | > 1 |  | Cc1nnc(SCC2=C(C(=O)O)N3C(=O)C(NC(=O)CSc4cc(Cl)ccc4Cl)C3SC2)s1 (centres unmarked) [3-(5'-methyl-1',3',4'-thiadiazol-2'-ylthiomethyl)-7-[2'-(2",5"-dichlorophenylthio)acetamido]-3-cephem-4-carboxylic acid, sodium salt] |  | 
2.3 | > 20 |  | Cc1nnc(SCC2=C(C(=O)O)N3C(=O)C(NC(=O)CSc4cc(F)c(Cl)cc4Cl)C3SC2)s1 (centres unmarked) [3-(5'-methyl-1',3',4'-thiadiazol-2'-ylthiomethyl)-7-[2'-(2",4"-dichloro-5"- fluorophenylthio)acetamido]-3-cephem-4-carboxylic acid, sodium salt] |  | 
2 | 5.2 |  | CC(=O)OCC1=C(C(=O)O)N2C(=O)C(NC(=O)CSc3cccc(Cl)c3)C2SC1 (centres unmarked) [7-m-Chlorophenylthioacetamidocephalosporanic acid, potassium salt] |  | 
2.2 |  | skip zones | Cn1nnnc1SCC1=C(C(=O)O)N2C(=O)C(NC(=O)CSc3cc(Cl)cc(Cl)c3)C2SC1 (centres unmarked) [3-[1'-methyl-1'H-tetrazol-5'-ylthiomethyl]-7-[2'-(3",5"-dichlorophenylthio)acetamido]-3-cephem-4-carboxylic acid, dicyclohexylamine salt] |  | 
2.4 (≈ 4.38 µM) | > 20 |  | Cn1nnnc1SCC1=C(C(=O)O)N2C(=O)C(NC(=O)CSc3ccc(Cl)c(Cl)c3)[C@H]2SC1 (some centres unmarked) [Example 5, 7-[2-(3,4-dichlorophenylthio)acetamido]-3-(1-methyltetrazol-5-yl-thiomethyl)-3-cephem-4-carboxylic acid] |  | 
1.9 | > 20 |  | Cn1nnnc1SCC1=C(C(=O)O)N2C(=O)C(NC(=O)CSc3cc(F)c(Cl)cc3Cl)C2SC1 (centres unmarked) [3-(1'-methyl-1'H-tetrazol-5'-ylthiomethyl)-7-[2'-[2",4"-dichloro-5"-fluorophenylthio)acetamido]-3-cephem-4-carboxylic acid, dicyclohexylamine salt] |  | 
0.8 | > 1 |  | O=C(CSc1cc(Cl)ccc1Cl)NC1C(=O)N2C(C(=O)O)=C(CSc3nnc(-c4ccccc4)o3)CSC12 (centres unmarked) [3-[5'-phenyl-1',3',4'-oxadiazol-2'-ylthiomethyl]-7-[2'-(2"-5"-dichlorophenylthio)acetamido]-3-cephem-4-carboxylic acid, dicyclohexylamine salt] |  | 
1.2 | > 20 |  | Cc1nnc(SCC2=C(C(=O)O)N3C(=O)C(NC(=O)CSc4ccc(Cl)c(Cl)c4)C3SC2)s1 (centres unmarked) [3-(5'-methyl-1',3',4'-thiadiazol-2'-ylthiomethyl)-7-[2'-(3",4"-dichlorophenylthio)acetamido]-3-cephem-4-carboxylic acid, dicyclohexylamine salt] |  | 
2.3 |  | skip zones | Cn1nnnc1SCC1=C(C(=O)O)N2C(=O)C(NC(=O)CSc3cc(Cl)ccc3Cl)C2SC1 (centres unmarked) [3-(1'-methyl-1'H-tetrazol-5'-ylthiomethyl)-7-[2'-(2",5"-dichlorophenylthio)acetamido]-3-cephem-4-carboxylic acid, dicyclohexylamine salt] |  | 
3 (≈ 5.89 µM) | > 20 |  | CC(=O)OCC1=C(C(=O)O)N2C(=O)C(NC(=O)CSc3cc(F)c(Cl)cc3Cl)C2SC1 (centres unmarked) [Example 4, 7(2,4-Dichloro-5-fluoro-phenylthioacetamido)cephalosporanic acid] |  | 
